This passage reports growth-suppressive activity results from article PMC5391289 (Nature chemical biology, 2017).

One assay relates to Bacillus subtilis 168. Put plainly: Broth microdilution antimicrobial assay. In kind it is cell-based. The conditions noted are these: Mueller-Hinton broth, 100 µM to 49 nM, 37 °C, 18 h, at least 2 replicates. In general terms: In broth dilution the organism is exposed to a series of concentrations in liquid medium.
Another assay has as its system E. coli MC4100. In words: Broth microdilution antimicrobial assay. In kind it is cell-based, Escherichia coli. As to conditions: Mueller-Hinton broth, 100 µM to 49 nM, 37 °C, 18 h, at least 2 replicates.
Assay [1] concerns Mycobacterium smegmatis NRRL B-14616. Put plainly: Broth microdilution antimicrobial assay. In kind it is cell-based. As to conditions: Mueller-Hinton broth, 100 µM to 49 nM, 37 °C, 24 h, at least 2 replicates.
Assay [2] has as its system Bacillus anthracis Sterne. In kind it is cell-based.
The subject of assay [3] is Enterococcus faecium U503 (VRE). In words: Broth microdilution antimicrobial assay. As to conditions: Mueller-Hinton broth, 100 µM to 49 nM, 37 °C, 18 h, at least 2 replicates. In kind it is cell-based.
For the next assay, the system named is panel of bacteria. In words: Broth microdilution antimicrobial assay. In kind it is cell-based. The conditions noted are these: all organisms tested, 100 µM to 49 nM compound, 37 °C, no visible growth after 18 h (24 h M. smegmatis), at least 2 replicates.

Ends that are not written are not given here.

“GFIGWGNDIFGHYSGG (also: lariat or depsi (positions not given here)) [anantin B2]”: the results for the growth-suppressive activity result in the assay with Bacillus subtilis 168 and with E. coli MC4100 were “moderately active” and “weak activity”, respectively. As to “GFIGWGNDIFGHYSGGF (also: lariat or depsi (positions not given here)) [anantin B1]”, in the assay on E. coli MC4100, the growth-suppressive activity result is reported as “weak activity”.

For the sequence “GRPNWGFENDWSCVRVC (also: bicyclic or more (positions not given here)) [LP2006]”, the growth-suppressive activity result (in assay [1]; in the assay on Bacillus subtilis 168; in assay [2]; in assay [3]) was “active” each time. Turning to “LAGQGSPDLLGGHSLL (also: lariat or depsi (positions not given here)) [lagmysin]”, the growth-suppressive activity entry with panel of bacteria was “lacked growth suppressive activity towards all organisms tested”. Take “LLGLAGNDRLVLSKN (also: lariat or depsi (positions not given here)) [Citrulassin A]”: the growth-suppressive activity result with panel of bacteria was “lacked growth suppressive activity towards all organisms tested”.

“SYHWGDYHDWHHGWYGWWDD (also: lariat or depsi (positions not given here)) [moomysin]”: in the assay on panel of bacteria, the growth-suppressive activity result was “lacked growth suppressive activity towards all organisms tested”.
